# From patent US20170296500A1, “Uses of Chlorogenic Acid in the Preparation of Medicaments for Treatment of Psoriasis” (SICHUAN JIUZHANG BIOLOGICAL SCIENCE AND TECHNOLOGY CO., LTD, priority 2014, published 2017)
# Where two headings read alike, the source gives them in different places.
# How the values were obtained:
# [1] = tested on: psoriasiform pathological change in aural region of guinea pigs; experiment: Pharmacodynamic test, psoriasis vulgaris model induced by 5% propranolol emulsion on guinea pig ears; Baker pathologic scores; assay type: in vivo; conditions: 14 days; for Pathology of lesional tissue after administration (light microscope): guinea pig ear, HE stain; for Baker scores compared with model group: P<0.01
# Excerpt: 60 guinea pigs adapted to diet one week before initiation of experimentation, and both ears of guinea pigs were unhaired, and randomly divided into blank group and experimental group, with 12 guinea pigs for blank group and 48 guinea pigs for experimental group. In experimental group, 5% propranolol dinitrate emulsion was evenly applied to bilateral ear back of guinea pigs, while in blank group, blank medium was applied for 14 days, with a thickness of about 1.0 mm for each time and 4 times per day, to induce pathologic change of psoriasis vulgaris-appearing. […] Based on body weight and conditions of establishing model, the remaining 44 guinea pigs were divided into 4 groups using random digits table, i.e. model group, positive group, low-dose group of chlorogenic acid, high-dose group of chlorogenic acid, 11 guinea pigs for each group.
# After administrating for 14 days, samples were taken, and 12% chloral hydrate was peritoneally injected at a dose of 0.35 mL/100 g. After anesthesia, blood sample was collected from abdominal aorta, and animals were sacrificed. Both ear tissues of guinea pigs were scissored and fixed in 10% formaldehyde solution. Ear tissues of guinea pigs were taken out, embedded in paraffin, sliced, normally stained with HE, and sealed with neutral gum. Pathological change of ears was observed under optical microscope, investigated and taken a picture in 10×20 vision. Referring to Baker method, pathologic scores of tissues were assessed: the presence of Munro microabscess in corneum layer scores 2.0 point; hyperkeratosis scores 0.5 point; parakeratosis scores 1.0 point; stratum granulosum thinning and disappearing scores 1.0 point; acanthosis scores 1.0 point; skin process extension and tortuous basal lamina are marked 0.5, 1.0, 1.5 according to light, middle, and heavy degrees, respectively; mononuclear cells and polymorphonuclear cells infiltration in dermis is marked 0.5, 1.0, 1.5 according to light, middle, and heavy degrees, respectively; obvious mastoid extrusion scores 0.5 point; telangiectasis in superficial layer of dermis scores 0.5 point.
# [2] = set-up: species or system guinea pigs; conditions: guinea pig, in vivo
# Protocol: 0.9% sodium chloride solution was administrated to blank group and model group; Positive drug control group was given suspension of acitretin A capsule at 2.25 mg/kg, and the amount of intragastric administration is all 1 mL/100 g for each time, twice a day; 20 mg/kg chlorogenic acid was administrated to the low-dose group by intramuscular injection, and 40 mg/kg chlorogenic acid was administrated to the high-dose group by intramuscular injection, using a volume of 0.2 ml/10 g, once a day.
# Before guinea pigs were sacrificed, blood was drawn via peritoneal cavity, and urea nitrogen and creatinine were detected by enzymic method, while glutamate pyruvate transaminase and glutamic-oxalacetic transaminase were tested using rate method.
# [3] = tested on: polymorphonuclear leukocytes (PMN); experiment: PMN transport into zymosan A-soaked gelatin sponge in peritoneal cavity of mice (psoriasis pustulosa test); assay type: in vivo, Kunmin mice
# Protocol: Kunmin mice were randomly divided into 3 groups. Blank control group: according to body weight, about 0.5 ml of peanut oil was administrated to mice by gavage everyday; for high-dose group of chlorogenic acid (20 mg·kg^−1), chlorogenic acid was administrated to each mouse at a dose of 0.4 ml/20 g by peritoneal injection; for low-dose group of chlorogenic acid (10 mg·kg^−1), chlorogenic acid was administrated to each mouse at a dose of 0.4 ml/20 g by peritoneal injection. Following phasic points were observed, i.e. before administration (day 0), days 1, 2, 4, 6 after administration.
# After a piece of sterile gelatin sponge (1 cm^2) was immersed in 0.75% zymosan A for 30 min, it was placed in peritoneal cavity of mice by surgery, and mice received standard diet. 24 hours after surgery, 5 mice of same phasic point were decapitated, and the gelatin sponges were taken out and stored in 0.5 ml cell eluant for culturing 30 min at 37 ° C., respectively. The gelatin sponges were washed with 0.01 mol/LPBS0.5 ml thrice, respectively, and the eluant was collected, passed through 40 μm nylon screen cloth, centrifuged, and the volume was 0.5 ml. Cells in above eluants were counted by automatic blood cell counter, and the amount of polymorphonuclear leukocytes (PMN) was read.
structure (smiles),measurement,setting,value
O=C(/C=C/c1ccc(O)c(O)c1)O[C@@H]1C[C@](O)(C(=O)O)C[C@@H](O)[C@H]1O [chlorogenic acid],Pathology of lesional tissue after administration (light microscope),[1]; chlorogenic group 20 and 40 mg/kg i.m.,obvious improvement
same,Baker scores compared with model group,"[1]; guinea pigs, 20 and 40 mg/kg intramuscular injection once a day",significantly different
same,Baker score of low-dose group (20 mg/kg) relative to high-dose group (40 mg/kg),"[1]; guinea pigs, intramuscular injection once a day, not dose-dependent",superior
same,ALT,[2]; 20 mg/kg,33.40 ± 7.26 u/L
same,AST,[2]; 20 mg/kg,29.10 ± 7.29 u/L
same,Serum creatinine,[2]; 20 mg/kg,88.33 ± 7.80 µmol/L
same,Urea nitrogen,[2]; 20 mg/kg,4.92 ± 0.63 mmol
same,ALT,[2]; 40 mg/kg,32.30 ± 6.07 u/L
same,AST,[2]; 40 mg/kg,24.80 ± 2.57 u/L
same,Serum creatinine,[2]; 40 mg/kg,87.27 ± 4.67 µmol/L
same,Urea nitrogen,[2]; 40 mg/kg,4.98 ± 0.71 mmol
same,Chemotactic activity of PMN in mice,[3]; 10 and 20 mg/kg peritoneal injection,significantly reduce
same,PMN transport numbers,"[3]; high dose group 20 mg/kg peritoneal injection, Day 0 (before administration)",7.60 ± 6.07 ×10^9/L
same,PMN transport numbers,"[3]; high dose group 20 mg/kg peritoneal injection, Day 1",1.54 ± 0.26 ×10^9/L
same,PMN transport numbers,"[3]; high dose group 20 mg/kg peritoneal injection, Day 2",1.20 ± 2.14 ×10^9/L
same,PMN transport numbers,"[3]; high dose group 20 mg/kg peritoneal injection, Day 4",1.15 ± 0.89 ×10^9/L
same,PMN transport numbers,"[3]; high dose group 20 mg/kg peritoneal injection, Day 6",1.10 ± 1.29 ×10^9/L
same,PMN transport numbers,"[3]; low dose group 10 mg/kg peritoneal injection, Day 0 (before administration)",6.98 ± 1.71 ×10^9/L
same,PMN transport numbers,"[3]; low dose group 10 mg/kg peritoneal injection, Day 1",4.92 ± 2.63 ×10^9/L
same,PMN transport numbers,"[3]; low dose group 10 mg/kg peritoneal injection, Day 2",2.67 ± 1.33 ×10^9/L
same,PMN transport numbers,"[3]; low dose group 10 mg/kg peritoneal injection, Day 4",1.98 ± 0.90 ×10^9/L
same,PMN transport numbers,"[3]; low dose group 10 mg/kg peritoneal injection, Day 6",1.62 ± 0.58 ×10^9/L
same,"Inhibitory action on chemotactic activity of PMN, high dose group (20 mg/kg) compared with low dose group (10 mg/kg)",[3]; peritoneal injection,stronger inhibitory action
"COc1cc(C)c(/C=C/C(C)=C/C=C/C(C)=C/C(=O)O)c(C)c1C [Acitretin A capsule, Acitretin A, reference compound]",Pathology of lesional tissue after administration (light microscope),[1]; positive group 2.25 mg/kg intragastric twice a day,obvious improvement
same,Baker scores compared with model group,"[1]; guinea pigs, positive group 2.25 mg/kg intragastric twice a day",significantly different
